Data from US20240325544A1, “CATIONIC LIPID FOR COVALENT MODIFICATION OF PEPTIDES” (PharmalN Corporation, priority 2023, published 2024).
Bridge positions count the residues as written; N and C are the ends. Square brackets hold non-standard residues; d marks the D form. Ends that are not written are not given here. * marks the point of attachment. Palmitoyl = CCCCCCCCCCCCCCCC(=O)*; Dap = NC[C@H](N)C(=O)O; AEEA = NCCOCCOCC(=O)O

What was measured:
[1] = Clinically observable adverse effects of cationic alkyl moieties after subcutaneous bolus in rats (Table 1); assay type: in vivo, rat; settings: male, Sprague-Dawley, rat, in vivo, sc, tested at 3.0, 5.0 or 10 μmol/kg, lethargy is considered maximum tolerated bolus dose, read-out: Lethargy* in n = 3
Method in brief: (§1)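 Rats given subcutaneous bolus of cationic alkyl modifier in sterile water pH 4.5-5, starting 5.0 μmol/kg, raised to 10 μmol/kg if no swelling or lowered to 3.0 μmol/kg if swelling, 1-week wash-out. Monitored for lethargy, ataxia, swelling, discoloration closely for 4 h, then hourly.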

[2] = test system: Sprague Dawley rats; test: as above; assay type: in vivo, rat; settings: tested at 3.0, 5.0 or 10 μmol/kg
Method in brief: as §1

[3] = test system: MC38 colon cancer cells; test: Subcutaneous mouse model of colon cancer using MC38 cells (FIG. 12); assay type: in vivo, mice; settings: combination with anti-tigit Ab 5 mg/kg IP twice a week, 2 cycles
Experimental: FIGS. 12A-12B. […] Error bars represent standard error of the mean. FIG. 12A) A diagram of the dose schedule for administration of immune checkpoint inhibitor (anti-tigit Ab) and SEQ ID NO: 31. FIG. 12 B) Tumor growth kinetics of 6-week-old male C57BL/6J mice (n=8-9 per group) that were subcutaneously inoculated with MC38 colon cancer cells (1,000,000 cells/mouse) in right flank. Starting from Day 4 post-inoculation, anti-tigit Ab was administered intraperitoneally at 5 mg/kg twice a week for 2 cycles; SEQ ID NO: 31 was administered subcutaneously at a bolus dose of 0.3 mg/kg (0.1 μmol/kg) once daily for 5 days (5 days on, 2 days off) for 3 cycles; or a combination of anti-tigit Ab (5 mg/kg IP twice a week; 2 cycles) and SEQ ID NO: 31 (0.3 mg/kg SC once a day for 5 days on and 2 days off; 3 cycles). The control group, which received only buffer, was dosed in the same manner as SEQ ID NO: 31 to establish the baseline tumor growth kinetics. […]
Animal care and treatment: Male C57BL/6J mice (6 weeks-old) were purchased from Kyudo (Saga, Japan) and maintained under a 12-hour light/12-hour dark cycle with free access to water and standard mouse diet (MF diet; Oriental Yeast Co., Ltd, Tokyo Japan). […] Tumor sizes were measured using calipers on Days 4, 7, 14, and Day 22 post-inoculation. […]

[4] = molecular target: T1, Recombinant human NPRB extracellular domain - human IgG1 Fc fusion (NPRB-Fc) (human, UniProt P20594 23-458); test: Fluorescence polarization competition: 150 nM SEQ ID NO: 31 against 5 nM CNP-F* on 50 nM human NPRB
T1 construct: extracellular domain; Used at 50 nM in the fluorescence polarization assay; R1-T433 counts on the mature protein; also called natriuretic peptide receptor B; not shown: Human IgG1 heavy chain, amino acids E216-G446 (IMGT.org, EU numbering), Accn; P01857.2
T1 sequence (looked up): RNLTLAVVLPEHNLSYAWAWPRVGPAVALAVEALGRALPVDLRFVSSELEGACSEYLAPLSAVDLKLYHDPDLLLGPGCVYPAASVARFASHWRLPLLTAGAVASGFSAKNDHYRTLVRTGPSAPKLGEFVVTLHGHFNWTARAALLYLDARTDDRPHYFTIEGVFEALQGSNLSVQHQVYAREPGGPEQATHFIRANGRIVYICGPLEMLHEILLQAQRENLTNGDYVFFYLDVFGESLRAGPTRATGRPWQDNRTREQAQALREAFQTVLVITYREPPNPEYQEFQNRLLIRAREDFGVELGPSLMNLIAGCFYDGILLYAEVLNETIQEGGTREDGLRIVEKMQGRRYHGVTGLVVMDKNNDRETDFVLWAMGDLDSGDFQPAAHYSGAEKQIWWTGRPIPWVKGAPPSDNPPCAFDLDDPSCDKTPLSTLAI
Experimental: (§2) In the presence of [SEQ ID.
(§3) Next, 1-L volume of SEQ ID. […] The plate was incubated at room temperature for 10 min. Fluorescence polarization was then measured on Flexstation 3 (excitation wavelength: 480 nm; emission wavelength: 525 nm and cutoff at 515 nm).

[5] = molecular target: T1, Recombinant human NPRB extracellular …; test: Fluorescence polarization, 5 nM CNP-F* with 50 nM human NPRB
Experimental: as §2, §3

[6] = molecular target: T2, Recombinant human NPRA extracellular domain - human IgG1 Fc fusion (NPRA-Fc) (human, UniProt P16066 33-473); test: Fluorescence polarization, 5 nM CNP-F* probe with recombinant human NPRA-Fc
T2 construct: extracellular domain; Expressed in Expi293 cells, Protein A purified; N1-L439 and C232 count on the mature NPRA, not on the precursor; also called Natriuretic Peptide Receptor A; not shown: Human IgG1 heavy chain, amino acids E216-G446 (IMGT.org, EU numbering), Accn; P01857.2
T2 sequence (looked up): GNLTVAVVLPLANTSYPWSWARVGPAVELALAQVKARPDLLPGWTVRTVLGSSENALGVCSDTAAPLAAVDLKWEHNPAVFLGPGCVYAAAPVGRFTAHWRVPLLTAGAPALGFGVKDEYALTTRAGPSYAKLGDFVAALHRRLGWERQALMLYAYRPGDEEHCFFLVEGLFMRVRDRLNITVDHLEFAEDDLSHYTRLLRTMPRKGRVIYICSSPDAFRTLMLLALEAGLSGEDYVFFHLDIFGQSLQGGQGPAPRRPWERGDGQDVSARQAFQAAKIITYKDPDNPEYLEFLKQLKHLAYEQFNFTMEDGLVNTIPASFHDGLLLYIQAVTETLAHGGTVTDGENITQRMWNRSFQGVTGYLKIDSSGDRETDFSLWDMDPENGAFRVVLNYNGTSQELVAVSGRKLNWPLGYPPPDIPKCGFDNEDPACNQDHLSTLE

CCCCCCCCCCCCCCCC(=O)NCCOCCOCC(=O)NCCOCCOCC(=O)NCCOCCOCC(=O)N[C@H](CCCCN)C(=O)N[C@H](CCCCN)C(=O)O [SEQ ID NO: 3, CH3(CH2)14(C═O)-Aeea-Aeea-Aeea-kk]
MTD [1]: ≥ 5 µmol/kg
Ataxia** in n = 3 ([2]; ataxia is bolus dose limiting toxicity): ≥5 µmol/kg
Swelling and/or Discoloration in n = 3 ([2]; dose at which sign was seen): ≥3 µmol/kg
Anti-tumor effect vs anti-tigit Ab monotherapy [3]: outperformed the anti-tumor effect of anti-tigit Ab as a monotherapy

B1: SEQ ID NO: 31, cationic alkyl modified CNP derivative CH3(CH2)14(C=O)-Aeea-Aeea-Aeea-Dap-Dap-GLSKGCFGLKLDRIGSQSGLGC (disulfide bond) (peptide)
peptide: Palmitoyl-[AEEA][AEEA][AEEA][Dap][Dap]GLSKGCFGLKLDRIGSQSGLGC
modifications: disulfide 11-27
notes: The entry holds non-natural residues (Aeea, Dap) before the 22 residues of the CNP part
binding result [4]: binds

B2: CNP-F* probe (C-type natriuretic peptide bound to 5(6)-Carboxyfluorescein) (peptide)
peptide: {5(6)‑carboxyfluorescein}-GLSKGCFGLKLDRIGSMSGLGC
modifications: disulfide 6-22 (inferred)
notes: Made by solid phase synthesis; used at 5 nM in the fluorescence polarization assay; also called CNP probe; CNP based probe
binding result [5]: binds
binding result [6]: no binding
